# Data reported in publication PMC11882969 (Nature Communications, 2025).
# “And” between values parts separate entries of the source, which are not always exact repeats. Identical values can stand only once. Like-named read-outs stand apart in the source and are kept apart here.
# Experiments:
# hCB1 = hCB1 (Homo sapiens, UniProt P21554); assay: bioSensAll ebBRET signaling profiling, hCB1; type: cell-based; parameters: host or cells: HEK293SL cells, transient PEI transfection; conditions: for Gi1 hCB1 response: Gi1 biosensor; for Gi1 hCB1 / GoB hCB1: single replicate values, FigS6a; for Emax [95% CI]: normalized to CP-55,940; for EC50: read-out: EC50 [95% CI]
# Chain of hCB1 (P21554 whole entry): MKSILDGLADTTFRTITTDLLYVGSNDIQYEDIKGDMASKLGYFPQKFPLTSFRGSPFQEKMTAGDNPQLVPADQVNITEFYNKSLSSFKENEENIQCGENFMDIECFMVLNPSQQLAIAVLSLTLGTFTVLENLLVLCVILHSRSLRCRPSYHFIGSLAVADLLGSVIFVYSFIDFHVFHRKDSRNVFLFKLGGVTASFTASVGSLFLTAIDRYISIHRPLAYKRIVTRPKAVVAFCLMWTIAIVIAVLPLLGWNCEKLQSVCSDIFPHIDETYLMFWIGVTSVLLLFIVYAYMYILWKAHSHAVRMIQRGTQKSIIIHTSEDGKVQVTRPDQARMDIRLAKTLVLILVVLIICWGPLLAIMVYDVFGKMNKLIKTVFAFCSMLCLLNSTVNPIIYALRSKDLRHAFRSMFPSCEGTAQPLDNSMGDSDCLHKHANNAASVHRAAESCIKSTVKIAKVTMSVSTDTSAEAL
# CB1 (rCB1) [1] = biological target: T1, CB1 (rCB1) (Rattus norvegicus, UniProt P20272); assay: Radioligand competition binding, [3H]-CP-55,940, rat brain membranes
# T1 sequence (P20272 whole entry): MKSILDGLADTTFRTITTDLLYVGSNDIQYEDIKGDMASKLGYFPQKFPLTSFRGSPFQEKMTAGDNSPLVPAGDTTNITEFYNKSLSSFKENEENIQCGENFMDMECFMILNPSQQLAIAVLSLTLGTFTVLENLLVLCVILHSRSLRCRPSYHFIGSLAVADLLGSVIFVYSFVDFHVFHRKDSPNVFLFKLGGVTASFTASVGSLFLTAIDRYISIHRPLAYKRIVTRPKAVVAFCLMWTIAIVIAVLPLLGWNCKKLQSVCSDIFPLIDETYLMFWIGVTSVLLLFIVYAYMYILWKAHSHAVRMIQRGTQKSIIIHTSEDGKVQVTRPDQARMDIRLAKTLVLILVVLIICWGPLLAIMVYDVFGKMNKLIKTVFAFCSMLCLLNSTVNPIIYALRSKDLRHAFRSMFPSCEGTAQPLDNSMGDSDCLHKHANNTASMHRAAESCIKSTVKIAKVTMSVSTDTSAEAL
# CB1 (rCB1) [2] = biological target: T1, CB1 (rCB1); assay: Single-point radioligand displacement screen; type: binding; conditions: 10 µM, 1 µM or 300 nM by cell colour (not visible)
structure (smiles),measurement,setting,value
COC(=O)[C@@H]1[C@@H]2CCC[C@@H]2CN1C(=O)c1cc(C)n(-c2cccc(Cl)c2)n1 (racemic) [‘10010],Gi1 hCB1 response,hCB1; Log [Compound] (M) -4.22186,123.556
same,Gi1 hCB1 response,hCB1; Log [Compound] (M) -4.63927,104.286
same,Gi1 hCB1 response,hCB1; Log [Compound] (M) -5.05788,90.0738
same,Gi1 hCB1 response,hCB1; Log [Compound] (M) -5.47381,84.2546
same,Gi1 hCB1 response,hCB1; Log [Compound] (M) -5.89285,64.3799
same,Gi1 hCB1 response,hCB1; Log [Compound] (M) -6.31878,42.6475
same,Gi1 hCB1 response,hCB1; Log [Compound] (M) -6.72585,30.3601
same,Gi1 hCB1 response,hCB1; Log [Compound] (M) -7.14267,11.5597
same,Gi1 hCB1 response,hCB1; Log [Compound] (M) -7.55284,0.9285
same,Gi1 hCB1 response,hCB1; Log [Compound] (M) -8,10.9106
same,Gi1 hCB1 response,hCB1; Log [Compound] (M) -8.22186,-8.695
same,Gi1 hCB1 response,hCB1; Log [Compound] (M) -8.39794,0.6152
same,Gi1 hCB1 response,hCB1; Log [Compound] (M) -8.68787,-2.362
same,Gi1 hCB1 response,hCB1; Log [Compound] (M) -9.61989,-10.5755
same,Gi1 hCB1 response,hCB1; Log [Compound] (M) -10.0969,-9.255
same,Gi1 hCB1 response,hCB1; Log [Compound] (M) -10.5529,-7.5988
same,Gi1 hCB1 response,hCB1; Log [Compound] (M) -11.0177,-15.9247
same,Gi1 hCB1 response,hCB1; Log [Compound] (M) -11.4949,-7.532
same,Gi1 hCB1 response,hCB1; Log [Compound] (M) -11.9208,-15.2309
same,Gi1 hCB1 response,hCB1; Log [Compound] (M) -12.3979,-21.4305
same,Gi1 hCB1 response,hCB1; Log [Compound] (M) -12.8861,1.8014
same,Gi1 hCB1 response,"hCB1; Log [Compound] (M) -13, individual replicate values",-0.8396 and -0.9068
same,Gi1 hCB1,hCB1; Log [Compound] (M) -4.22186,75.9694
same,GoB hCB1,hCB1; Log [Compound] (M) -4.22186,69.5491
same,Gi1 hCB1,hCB1; Log [Compound] (M) -4.63927,67.922
same,GoB hCB1,hCB1; Log [Compound] (M) -4.63927,64.6397
same,Gi1 hCB1,hCB1; Log [Compound] (M) -5.05788,66.8428
same,GoB hCB1,hCB1; Log [Compound] (M) -5.05788,63.4708
same,Gi1 hCB1,hCB1; Log [Compound] (M) -5.47381,60.337
same,GoB hCB1,hCB1; Log [Compound] (M) -5.47381,61.9062
same,Gi1 hCB1,hCB1; Log [Compound] (M) -5.89285,45.2596
same,GoB hCB1,hCB1; Log [Compound] (M) -5.89285,36.262
same,Gi1 hCB1,hCB1; Log [Compound] (M) -6.31878,29.1955
same,GoB hCB1,hCB1; Log [Compound] (M) -6.31878,27.8098
same,Gi1 hCB1,hCB1; Log [Compound] (M) -6.72585,16.0606
same,GoB hCB1,hCB1; Log [Compound] (M) -6.72585,11.4989
same,Gi1 hCB1,hCB1; Log [Compound] (M) -7.14267,6.117
same,GoB hCB1,hCB1; Log [Compound] (M) -7.14267,3.514
same,Gi1 hCB1,hCB1; Log [Compound] (M) -7.55284,3.804
same,GoB hCB1,hCB1; Log [Compound] (M) -7.55284,2.9568
same,Gi1 hCB1,hCB1; Log [Compound] (M) -8,3.373
same,GoB hCB1,hCB1; Log [Compound] (M) -8,0.9427
same,Gi1 hCB1,hCB1; Log [Compound] (M) -8.22186,2.679
same,GoB hCB1,hCB1; Log [Compound] (M) -8.22186,-4.812
same,Gi1 hCB1,hCB1; Log [Compound] (M) -8.39794,2.664
same,GoB hCB1,hCB1; Log [Compound] (M) -8.39794,-1.197
same,Gi1 hCB1,hCB1; Log [Compound] (M) -8.68787,1.0911
same,GoB hCB1,hCB1; Log [Compound] (M) -8.68787,-4.812
same,Gi1 hCB1,hCB1; Log [Compound] (M) -9.15521,1.8
same,GoB hCB1,hCB1; Log [Compound] (M) -9.15521,-5.028
same,Gi1 hCB1,hCB1; Log [Compound] (M) -9.61989,0.8444
same,GoB hCB1,hCB1; Log [Compound] (M) -9.61989,-4.38
same,Gi1 hCB1,hCB1; Log [Compound] (M) -10.0969,1.662
same,GoB hCB1,hCB1; Log [Compound] (M) -10.0969,-4.057
same,Gi1 hCB1,hCB1; Log [Compound] (M) -10.5529,2.648
same,GoB hCB1,hCB1; Log [Compound] (M) -10.5529,1.212
same,Gi1 hCB1,hCB1; Log [Compound] (M) -11.0177,0.9524
same,GoB hCB1,hCB1; Log [Compound] (M) -11.0177,-2.384
same,Gi1 hCB1,hCB1; Log [Compound] (M) -11.4949,2.417
same,GoB hCB1,hCB1; Log [Compound] (M) -11.4949,-4.326
same,Gi1 hCB1,hCB1; Log [Compound] (M) -11.9208,1.261
same,GoB hCB1,hCB1; Log [Compound] (M) -11.9208,-0.06441
same,Gi1 hCB1,hCB1; Log [Compound] (M) -12.3979,1.908
same,GoB hCB1,hCB1; Log [Compound] (M) -12.3979,2.4173
same,Gi1 hCB1,hCB1; Log [Compound] (M) -12.8861,1.322
same,GoB hCB1,hCB1; Log [Compound] (M) -12.8861,1.59
same,Gi1 hCB1,hCB1; Log [Compound] (M) -13,2.232 and 1.538
same,GoB hCB1,hCB1; Log [Compound] (M) -13,0.8707 and 1.266
same,pEC50 [95% CI],hCB1; hCB1 Gi1,6.1 [6.0 – 6.1]
same,Emax [95% CI],hCB1; hCB1 Gi1,74 [70 – 74]
same,pEC50 [95% CI],hCB1; hCB1 GoB,6.1 [6.0 – 6.2]
same,Emax [95% CI],hCB1; hCB1 GoB,71 [67 – 75]
same,pEC50 [95% CI],hCB1; hCB1 Gz,5.9 [5.4 – 6.3]
same,Emax [95% CI],hCB1; hCB1 Gz,144 [113 –175]
same,EC50,hCB1; hCB1 Gi1,0.814 µM
same,EC50,hCB1; hCB1 GoB,0.801 µM
same,EC50,hCB1; hCB1 Gz,1.4 µM
same,pKi [95% CI],CB1 (rCB1) [1]; rCB1,5.9 [5.8 – 6.0]
same,Ki,"CB1 (rCB1) [1]; read-out: Ki [95% CI], rCB1, [3H]-CP-55,940",1.2 µM
same,"% 1H-CP-55,940 displacement (mean) from single point screen",CB1 (rCB1) [2],33.86%
